Results published in publication PMC3032679 (Journal of Translational Medicine, 2011).
“Also recorded” adds a separate entry of the source. Peptide text beside a SMILES is read from it.

How the values were obtained:
[1] = Observation of behavior and appetite after treatment; assay type: in vivo; details: mice
MDA-MB-231 cells = experiment: Cell viability assay, MDA-MB-231; assay type: cell-based, human; details: Antp-TPR; breast cancer MDA-MB-231; mean of three independent experiments each in triplicate; 72 h (Figure 2)
Source text: (§1) The following human tumor and normal cell lines were obtained from the American Type Culture Collection (ATCC): human breast cancer (BT-20, T47D, and MDA-MB-231), lung cancer (A549), kidney cancer (Caki-1), prostate cancer (LNCap), gastric cancer (OE19) and lung fibroblast (MRC5). Human pancreatic cancer cell line (BXPC3) was purchased from the European Collection of Cell Culture (ECACC). Human embryonic kidney cell line (HEK293T) and human normal pancreatic epithelial (PE) cell line ACBRI 515 were purchased from RIKEN cell bank and DS Pharma Biomedical, respectively. Cells were cultured in RPMI-1640 (BT-20, MDA-MB-231, T47D, LNCap, OE19, and BXPC3), MEM (MRC5 and A549), DMEM (HEK293T and Caki-1) or CSC (PE) containing 10% fetal bovine serum (FBS), 100 μg/ml penicillin, and 100 μg/ml streptomycin.
(§2) Cells were seeded on to 96-well plates at 2000-3000 cells/well and incubated with the test peptide. After incubation, an assay for cell viability was carried out using Living Cell Count Reagent SF (Nacalai Tesque) according to the manufacturer's protocol. Absorbance was measured at a wavelength of 450 nm using a 96-well microplate reader (GE Healthcare).
(§3) Data represent the mean ± SD from experiments performed in triplicate.

BXPC3 cells = experiment: Cell viability assay, BXPC3; assay type: cell-based, human; details: Antp-TPR; pancreatic cancer BXPC3; mean of three independent experiments each in triplicate; 72 h (Figure 2)
Source text: as §1, §2, §3

LNcap cells = details: Antp-TPR; prostate cancer LNcap; mean of three independent experiments each in triplicate; 72 h (Figure 2)
Source text: as §1, §2, §3

BT20 cells = experiment: Cell viability assay, BT20; assay type: cell-based, human; details: Antp-TPR; breast cancer BT20; mean of three independent experiments each in triplicate; 72 h (Figure 2)
Source text: as §1, §2, §3

PE cells = experiment: Cell viability assay, PE; assay type: cell-based, human; details: Antp-TPR; normal cells PE; mean of three independent experiments each in triplicate; 72 h (Figure 2)
Source text: as §1, §2, §3

Caki-1 cells = details: Antp-TPR; renal cancer Caki-1; mean of three independent experiments each in triplicate; 72 h (Figure 2)
Source text: as §1, §2, §3

MRC5 cells = details: Antp-TPR; normal cells MRC5; mean of three independent experiments each in triplicate; 72 h (Figure 2)
Source text: as §1, §2, §3

HEK293T cells = experiment: Cell viability assay, HEK293T; assay type: cell-based, human; details: Antp-TPR; normal cells HEK293T; mean of three independent experiments each in triplicate; 72 h (Figure 2)
Source text: as §1, §2, §3

[2] = tested on: normal human cell lines (HEK293T, MRC5, and PE); experiment: Cell viability assay, normal cell lines (panel); details: identical concentrations, 72 h
Source text: as §1, §2, §3

liver, kidney, and lung = experiment: Histologic examination of organs (H & E); assay type: in vivo, athymic nude mice; details: 5 mg/kg i.v., nine times, versus saline
Source text: (A) BXPC3 pancreatic cancer cells were implanted subcutaneously into athymic nude mice. […] Each group had six animals (n = 6), and experiments were repeated twice. Data are expressed as mean ± SD. […] Scale bars, 25 μm. (C) Histologic examination after treatment with Antp-TPR hybrid peptide.

OE19 cells = details: Antp-TPR; gastric cancer OE19; mean of three independent experiments each in triplicate; 72 h (Figure 2)
Source text: as §1, §2, §3

A549 cells = experiment: Cell viability assay, A549; assay type: cell-based, human; details: Antp-TPR; lung cancer A549; mean of three independent experiments each in triplicate; 72 h (Figure 2)
Source text: as §1, §2, §3

[3] = tested on: normal and cancer cell lines; experiment: Cell viability assay, normal and cancer cell lines (panel); assay type: cell-based, human; details: 72 h
Source text: as §1, §2, §3

[4] = tested on: interaction of Hsp90 with the TPR2A domain of Hop; experiment: SPR competition: Hsp90 binding to TPR2A domain of Hop; assay type: biochemical, human; details: Hsp90 1 μM over immobilized TPR2A (5000 RU), peptide 1.4, 14, 140, 280, 700 μM and 1 mM
Experimental: To confirm the presence of purified protein, SDS/PAGE was performed according to the method of Laemmli.
SPR experiments were performed with the Biacore biosensor 3000 system as described previously. Human recombinant Hop, FKBP5, PP5, and purified TPR2A domain of Hop proteins were immobilized on the surface of CM5 sensor chips via N-hydroxysuccinimide and N-ethyl-N'-(dimethylaminopropyl)carbodiimide activation chemistry according to the manufacturer's instructions. Biotin-conjugated TPR peptide (biotin-TPR) was immobilized on the surface of streptavidin (SA) sensor chip. […] HBS-EP buffer (0.01 M Hepes/0.15 M NaCl/0.005% Tween 20/3 mM EDTA, pH 7.4) was used as a running buffer during the assay to inhibit non-specific binding. Data analysis was performed using BIA evaluation version 4.1 software. […] SPR signals obtained in the absence of competing peptides were used as a reference (100% binding) to normalize values obtained in the presence of peptides.
The SPR signal in the absence of competing peptides was used as a reference (100% binding).

Compound: CC[C@H](C)[C@H](NC(=O)[C@H](CCCNC(=N)N)NC(=O)[C@H](C)NC(=O)[C@H](Cc1ccc(O)cc1)NC(=O)[C@H](C)NC(=O)[C@H](CCCCN)NC(=O)[C@H](CCCCN)NC(=O)[C@H](CCCCN)NC(=O)[C@H](Cc1c[nH]c2ccccc12)NC(=O)[C@H](CCCCN)NC(=O)[C@H](CCSC)NC(=O)[C@H](CCCNC(=N)N)NC(=O)[C@H](CCCNC(=N)N)NC(=O)[C@H](CC(N)=O)NC(=O)[C@H](CCC(N)=O)NC(=O)[C@H](Cc1ccccc1)NC(=O)[C@H](Cc1c[nH]c2ccccc12)NC(=O)[C@@H](NC(=O)[C@H](CCCCN)NC(=O)[C@@H](NC(=O)[C@H](CCC(N)=O)NC(=O)[C@@H](N)CCCNC(=N)N)[C@@H](C)CC)[C@@H](C)CC)C(=O)NCC(=O)N[C@@H](CC(N)=O)C(=O)N[C@@H](CO)C(=O)N[C@@H](Cc1ccc(O)cc1)C(=O)N[C@@H](Cc1ccccc1)C(=O)N[C@@H](CCCCN)C(=O)O [Antp-TPR] (H-RQIKIWFQNRRMKWKKKAYARIGNSYFK-OH)
- abnormal behaviors or losing of appetite [1]: any abnormal behaviors or losing of appetite after the treatment with this peptide was not also observed
- IC50 (MDA-MB-231 cells): 56.9 µM
- IC50 (BXPC3 cells): 44.8 µM
- IC50 (LNcap cells): 56.7 µM
- IC50 (BT20 cells): 37.4 µM
- IC50 (PE cells): > 100 µM
- IC50 (Caki-1 cells): 47.9 µM
- IC50 (MRC5 cells): > 100 µM
- IC50 (HEK293T cells): > 100 µM
- effect on viability of normal cells [2]: did not apparently reduce the viability; also recorded: less cytotoxic to normal cells
- histologic examination of liver, kidney, and lung (liver, kidney, and lung): equally unremarkable in the saline or hybrid peptide-treated mice; also recorded: did not cause serious damages to the main organs (liver, kidney, and lung) and normal tissues
- IC50 (OE19 cells): 33.4 µM
- IC50 (A549 cells): 65.9 µM

Compound: RQIKIWFQNRRMKWKKRKFSAAIGYNKY [Antp-scramble, scramble peptide fused to Antennapedia helix III]
- effect on viability / cytotoxicity [3]: no effect on these cell lines

Compound: RQIKIWFQNRRMKWKKKAYARIGNSGGG [Antp-TPR mutant 2]
- selective antitumor activity [3]: did not show selective antitumor activities

Compound: CC[C@H](C)[C@H](NC(=O)[C@H](CCCNC(=N)N)NC(=O)[C@H](C)NC(=O)[C@H](Cc1ccc(O)cc1)NC(=O)[C@H](C)NC(=O)[C@@H](N)CCCCN)C(=O)NCC(=O)N[C@@H](CC(N)=O)C(=O)N[C@@H](CO)C(=O)N[C@@H](Cc1ccc(O)cc1)C(=O)N[C@@H](Cc1ccccc1)C(=O)N[C@@H](CCCCN)C(=O)O [TPR]
- effect on viability / cytotoxicity [3]: no effect on normal or cancer cells; also recorded: no cytotoxicity

Compound: RQIKIWFQNRRMKWKKKAYAAAGNSYFK [Antp-TPR mutant 1]
- selective antitumor activity [3]: did not show selective antitumor activities

Compound: KAYAAAGNSYFK [TPR mutant 1]
- competition for interaction of Hsp90 with TPR2A domain of Hop [4]: did not demonstrate any protein interaction when analyzed at up to millimolar concentrations

Compound: KAYARIGNSGGG [TPR mutant 2, TPR with last three amino acids, Tyr-Phe-Lys, replaced with three Gly residues]
- competition for interaction of Hsp90 with TPR2A domain of Hop [4]: did not demonstrate any protein interaction when analyzed at up to millimolar concentrations

Compound: RKFSAAIGYNKY [TPR scramble, scramble peptide of TPR]
- competition for interaction of Hsp90 with TPR2A domain of Hop [4]: did not demonstrate any protein interaction when analyzed at up to millimolar concentrations
